Experimental data reported in US20240277684A1, “BLOCKADE OF CHEMOKINE (C-C MOTIF) RECEPTOR 2 DURING FLUID RESUSCITATION” (University of South Florida, priority 2022, published 2024).

Columns and labels:
severe hemorrhagic shock = test: Example 2 Series 4: lethal hemorrhage without fluid resuscitation; format: in vivo, rat; settings: 5 μmol/kg INCB3284 or 1 μmol/kg SB328437 after 40% TBV hemorrhage
Protocol: The hemorrhagic shock models were performed as described previously, with slight modifications (DeSantis A J, et al., The Chemokine (C-C Motif) Receptor 2 Antagonist INCB3284 Reduces Fluid Requirements and Protects From Hemodynamic Decompensation During Resuscitation From Hemorrhagic Shock. Crit Care Explor 2022;4(5):e0701; Bach H H, et al., Chemokine (C-X-C motif) receptor 4 and atypical chemokine receptor 3 regulate vascular alpha(1)-adrenergic receptor function. Mol Med 2014; 20:435-47; Nassoiy S P, et al., Effects of the Kv7 voltage activated potassium channel inhibitor linopirdine in rat models of hemorrhagic shock. Clin Exp Pharmacol Physiol 2018. doi: 10.1111/1440-1681.12958. PubMed PMID: 29702725; Bach H H, et al., Proteasome inhibition prolongs survival during lethal hemorrhagic shock in rats. J Trauma Acute Care Surg 2013; 74(2):499-507). In brief, anesthesia induction was performed with the animal and isoflurane-soaked gauze placed in a bell jar. After anesthesia induction, the animals were transferred to the operative field and anesthesia was maintained with 2.7% isoflurane administered via nose-cone inhalation with the SomnoSuite small animal anesthesia system (Kent Scientific Corporation, Torrington, CT, USA). […] Using a direct cut-down technique, the left femoral artery was isolated and cannulated with a 24-gauge peripheral intravenous catheter to allow for blood withdrawal, hemodynamic monitoring, drug administration, and fluid resuscitation. After catheter placement, isoflurane was decreased to 1.5%. Hemodynamics were continuously monitored with the Surgivet invasive blood pressure monitor (Med-Electronics, Beltsville, MD, USA). Blood pressures were recorded at 1-5 min intervals during the hemorrhage and resuscitation periods. Four subsequent series of experiments were performed. All experiments in each series were performed in alternating order. In all experiments animals were continuously monitored and remained under general anesthesia until euthanasia or death, as defined by asystole or loss of pulse pressure.
Series 4: The purpose of these experiments was to determine whether treatment with the chemokine receptor antagonists increases shock tolerance, blood pressure and survival time without additional fluid resuscitation. As such, death is an intentional endpoint. Earlier endpoints are unable to answer these questions and alternatives are not available. Rats were hemorrhaged 40% total blood volume (TBV) within 10 min. At t=15 min, animals were injected with vehicle (1 mL NS, n=3), 5 μmol/kg INCB3284 in 1 mL NS (n=5) or […] SB 328437 in 1 mL NS (n=5). Animals were then hemorrhaged 2% TBV every 5 minutes until death.

[1] = rats; cited from earlier work
normal rats = test: Effects on blood pressure in normal rats; format: in vivo, rat
Protocol: In vivo animal experiments. All procedures were performed in accordance with the National Institutes of Health Guidelines for Use of Laboratory Animals and were approved by the University of South Florida Institutional Animal Care and Use Committeee (IS00008139). Male Sprague-Dawley rats (300-400 g, Envigo, Indianapolis, IN, USA). were anesthetized with 1.7% isoflurane via nose-cone inhalation with the SomnoSuite anesthesia system (Kent Scientific, Torrington, CT, USA). […] The left femoral artery was isolated and cannulated with a 24-gauge peripheral intravenous catheter to allow for blood withdrawal, hemodynamic monitoring, drug administration, and fluid resuscitation. Hemodynamics were continuously monitored with the SurgivetV6400 blood pressure monitor (Med-Electronics, Beltsville, MD, USA), and blood pressures and heart rate were recorded at 1-10 min intervals. All animals were observed over a 10 min period to ensure hemodynamic stability before start of the experiments. All experiments were performed randomized in alternating order. To test the effects of INCB3284 in normal rats, animals received repetitive injections of 1 mL of Lactated Ringer's solution (LR, vehicle) in 10 min intervals (n=3) or increasing doses of the drug (0.55, 0.82, 1.4 and 2.75 μmol/kg INCB3284) in 1 mL LR in 10 min intervals (n=3).

hemorrhagic shock = test: Example 1 first series: 30 min hemorrhagic shock, fluid resuscitation until t=90 min; format: in vivo, rat
Protocol: In vivo animal experiments. All procedures were performed in accordance with the National Institutes of Health Guidelines for Use of Laboratory Animals and were approved by the University of South Florida Institutional Animal Care and Use Committeee (IS00008139). Male Sprague-Dawley rats (300-400 g, Envigo, Indianapolis, IN, USA). were anesthetized with 1.7% isoflurane via nose-cone inhalation with the SomnoSuite anesthesia system (Kent Scientific, Torrington, CT, USA). […] The left femoral artery was isolated and cannulated with a 24-gauge peripheral intravenous catheter to allow for blood withdrawal, hemodynamic monitoring, drug administration, and fluid resuscitation. Hemodynamics were continuously monitored with the SurgivetV6400 blood pressure monitor (Med-Electronics, Beltsville, MD, USA), and blood pressures and heart rate were recorded at 1-10 min intervals. All animals were observed over a 10 min period to ensure hemodynamic stability before start of the experiments. All experiments were performed randomized in alternating order. […] Physiol Res 2019; 68(4):675-679; Nassoiy S P, et al., Effects of the Kv7 voltage-activated potassium channel inhibitor linopirdine in rat models of haemorrhagic shock. Clin Exp Pharmacol Physiol 2018; Nassoiy S P, et al., Kv7 voltage-activated potassium channel inhibitors reduce fluid resuscitation requirements after hemorrhagic shock in rats. J Biomed Sci 2017; 24(1):8; Bach H Ht, et al., Proteasome inhibition prolongs survival during lethal hemorrhagic shock in rats. J Trauma Acute Care Surg 2013; 74(2):499-507; Bach H Ht, et al., Chemokine (C-X-C motif) receptor 4 and atypical chemokine receptor 3 regulate vascular alpha(1)-adrenergic receptor function. Mol Med 2014; 20:435-447), with slight modifications. In brief, rats were hemorrhaged to a mean arterial blood pressure (MAP) of less than or equal to 30 mmHg for a period of 30 minutes. At the end of the HS period (t=30 min), animals were injected with either vehicle (1 mL LR) or drug in 1 mL LR, followed by fluid resuscitation with 1 mL bolus injections of LR to maintain a systolic blood pressure (SBP) of 90 mmHg or a MAP of 60 mmHg. To avoid fluid overload, bolus injections of LR were limited to 1 mL/min. […] Animals were then resuscitated until t=90 min. At t=0, 15, 30, 60 and 90 min, blood samples were obtained, and plasma prepared. Samples were stored at -70° C. until further processing. At t=90 min, animals were euthanized (isoflurane inhalation, bilateral pneumothorax).

[2] = increasing doses 0.55, 0.82, 1.4 and 2.75 μmol/kg in 1 mL LR, 10 min intervals

**Q.** With `COc1ccc([C@]2(O)CC[C@@H](N3CC[C@@H](NC(=O)CNC(=O)c4cccc(C(F)(F)F)c4)C3)CC2)cn1` [INCB3284] as the compound, how does the “MAP during subsequent 2% TBV hemorrhages in 5 min intervals” value (severe hemorrhagic shock; no fluid resuscitation) read?
**A.** indistinguishable among groups

**Q.** And the median survival time (severe hemorrhagic shock; not significantly different between groups)?
**A.** 80 min

**Q.** And the half-live [1]?
**A.** 168 min

**Q.** And the “MAP during the observation period” value (normal rats; [2])?
**A.** remained constant

**Q.** And the “acute effects on blood pressure” value (normal rats; [2])?
**A.** did not show acute effects on blood pressure

**Q.** What about the “slope of the MAP linear regression line” value (normal rats; increasing doses 0.55-2.75 μmol/kg, not significantly different from zero (p=0.43)) of the same compound?
**A.** −0.011 mmHg/min

**Q.** What about the “fluid requirements to maintain hemodynamics” value (hemorrhagic shock; 1.1 μmol/kg at t=30 min, until t=90 min, p>0.05 vs. vehicle) of the same compound?
**A.** 50 ± 1 mL/kg

**Q.** What about the “effect on fluid requirements to maintain hemodynamics” value (hemorrhagic shock; 1.1 μmol/kg at t=30 min, vs vehicle) of the same compound?
**A.** did not affect fluid requirements

**Q.** And the “MAP during the observation period” value (hemorrhagic shock; 5.5 μmol/kg at t=30 min)?
**A.** increased MAP at various time points

**Q.** What about the “reduction of fluid requirements” value (hemorrhagic shock; 5.5 μmol/kg at t=30 min, until t=90 min, vs vehicle) of the same compound?
**A.** 58±11%

**Q.** What about the “fluid requirements to maintain hemodynamics” value (hemorrhagic shock; 5.5 μmol/kg at t=30 min, until t=90 min, p<0.05 vs. vehicle) of the same compound?
**A.** 21.7 ± 6 mL/kg
